In ChEMBL document CHEMBL3046053, “Synthesis, characterization and herbicidal activity of new thiazoline derivatives” (2013):

What was measured:
Type in all cases: functional
Conditions in all cases: read-out: GI
Echinochloa crus-galli [1] = test: Herbicidal activity against barnyard grass Echinochloa crus-galli (barnyard grass) assessed as inhibition of stalk growth at 100 mg/L relative to untreated control
Brassica napus [2] = test: Herbicidal activity against Brassica napus (oilseed rape) assessed as inhibition of stalk growth at 10 mg/L relative to untreated control
Echinochloa crus-galli [3] = test: Herbicidal activity against barnyard grass Echinochloa crus-galli (barnyard grass) assessed as inhibition of root growth at 100 mg/L relative to untreated control
Brassica napus [4] = test: Herbicidal activity against Brassica napus (oilseed rape) assessed as inhibition of root growth at 10 mg/L relative to untreated control
Echinochloa crus-galli [5] = test: Herbicidal activity against barnyard grass Echinochloa crus-galli (barnyard grass) assessed as inhibition of root growth at 10 mg/L relative to untreated control
Echinochloa crus-galli [6] = test: Herbicidal activity against barnyard grass Echinochloa crus-galli (barnyard grass) assessed as inhibition of stalk growth at 10 mg/L relative to untreated control
Brassica napus [7] = test: Herbicidal activity against Brassica napus (oilseed rape) assessed as inhibition of root growth at 100 mg/L relative to untreated control
Brassica napus [8] = test: Herbicidal activity against Brassica napus (oilseed rape) assessed as inhibition of stalk growth at 100 mg/L relative to untreated control

SMILES	inhibition of growth at 100 µg/mL (Echinochloa crus-galli [1])	inhibition of growth at 10 µg/mL (Brassica napus [2])	inhibition of growth at 100 µg/mL (Echinochloa crus-galli [3])	inhibition of growth at 10 µg/mL (Brassica napus [4])	inhibition of growth at 10 µg/mL (Echinochloa crus-galli [5])	inhibition of growth at 10 µg/mL (Echinochloa crus-galli [6])	inhibition of growth at 100 µg/mL (Brassica napus [7])	inhibition of growth at 100 µg/mL (Brassica napus [8])
CCOC(=O)c1s/c(=N\Cc2ccccc2)n(-c2ccccc2)c1N	44.4%	20%	83.7%	47.2%	74.4%	40.7%	98.1%	92%
CCOC(=O)c1s/c(=N\c2ccc(C)cc2)n(-c2ccccc2)c1N	49.6%	44%	88.4%	34%	79.1%	25.9%	79.2%	44%
CCOC(=O)c1s/c(=N\CC/N=c2/sc(C(=O)OCC)c(N)n2-c2ccccc2)n(-c2ccccc2)c1N	34.6%	52%	58.6%	39.7%	37.9%	15.4%	76.9%	52%
CCOC(=O)c1s/c(=N\c2ccc(OC)cc2)n(-c2ccccc2)c1N	61.9%	66%	90.7%	64%	74.4%	42.2%	94.3%	92%
O=C(O)COc1ccc(Cl)cc1Cl [2,4-DICHLOROPHENOXYACETIC ACID]	43.5%	87.5%	97.5%	88.8%	90%	33.3%	98%	91.2%
CCCC/N=c1\sc(C(=O)OCC)c(N)n1-c1ccccc1	22.6%	0%	34.4%	0%	25%	19.4%	29.3%	39.1%
CCC/N=c1\sc(C(=O)OCC)c(N)n1-c1ccccc1	35.5%	4.3%	68.1%	40%	50%	9.7%	48%	26.1%
CCOC(=O)c1s/c(=N\c2ccccc2)n(-c2ccccc2)c1N	43.3%	52%	86%	37.7%	69.8%	31.6%	71.7%	64%
CCOC(=O)c1s/c(=N\c2ccc(Br)cc2)n(-c2ccccc2)c1N	48.1%	44%	88.4%	32.1%	76.7%	31.6%	90.6%	72%
CCOC(=O)c1s/c(=N\CCCCCC/N=c2/sc(C(=O)OCC)c(N)n2-c2ccccc2)n(-c2ccccc2)c1N	38.5%	12%	69%	21.8%	34.5%	19.2%	50%	32%
CCCCCC/N=c1\sc(C(=O)OCC)c(N)n1-c1ccccc1	33.3%	64%	86%	43.4%	76.7%	33.3%	92.5%	89%
CCOC(=O)c1s/c(=N\CCC/N=c2\sc(C(=O)OCC)c(N)n2-c2ccccc2)n(-c2ccccc2)c1N	34.6%	12%	58.6%	7.7%	31%	3.8%	41%	36%
CCOC(=O)c1s/c(=N\Cc2ccccc2Cl)n(-c2ccccc2)c1N	26.5%	-13%	19.4%	-9.3%	18.8%	12.9%	38.6%	34.8%
